Measured values: US10227312B2, “Glucosylceramide synthase inhibitors for the treatment of diseases” (BIOMARIN PHARMACEUTICAL INC., priority 2015, dated 2019)

How the values were obtained:
[1] = target: glucosylceramide synthase (GCS) (Canis lupus familiaris, UniProt A0A8I3MXG6); test: GCS Enzymatic Assay (MDCK lysates); type: biochemical, canine; settings: MDCK cell lysate, C6-NBD-Ceramide, 37° C. for 1 hour, LC/MS; read-out: Assay 1 (Enzyme Assay; MDCK lysates) IC50
Method: Madin-Darby canine kidney (MDCK) cell lysate was prepared using M-PER Mammalian Protein Extraction Reagent (Thermal Scientific) in the presence of a protease inhibitor cocktail (Roche). Protein concentration was determined using BCA assay kit (Pierce). […] 0.1% DMSO was used as mock treatment or control. The reaction was terminated by adding 100 μL acetonitrile solution and subjected to LC/MS analysis.
The quantitative analysis of NBD-Ceramide and glucosylceramide was performed on a Shimadzu ultra-fast liquid chromatography (Shimadzu, Japan) coupled with API 4000 triple quadrupole mass spectrometer (Applied Biosystems, Concord, Ontario, Canada). Sample separation was conducted on a Waters Xbridge™ BEH130 C18, 100 mm×4.6 mm i.d, 3.5 μm (Milford, Mass., USA). The mobile phase consisted of water and acetonitrile supplemented with 0.1% formic acid (v/v). The flow rate was 1.0 mL/min. The initial mobile phase was 20% acetonitrile and was ramped in a linear fashion to 50% acetonitrile in 0.4 min. From 0.4 to 1.5 min, the gradient was ramped to 98% acetonitrile, and then was held at […] until 8.0 min. Acetonitrile was reset to 20% in 1.5 min, and maintained until 10.0 min. The total run time was 10.0 min. The MS/MS detection was performed in ESI positive mode. […] The cell lysate was diluted with equal volume of acetonitrile. Aliquots of 50 μL diluted samples were added to 1.5 mL tubes, and 100 μL of acetonitrile containing internal standard (100 ng/mL tolbutamide) were added for protein precipitation. The mixture were vortexed and then centrifuged at 13000 rpm for 10 min. 70 μL of supernatant were mixed with 140 μL of H2O and the final solution were injected for LC/MS/MS analysis and IC50's and/or percent inhibitions calculated.

K562 cells = test: K562 Cell-Based Assay; settings: Homo sapiens, NBD-Ceramide, LCMS, read-out: Assay 2 (Cellular Assay; K562 cells) IC50
Method: This assay was modified based on the study by Gupta et al. (J. Lipid Res. 2010, 51, 866). K562 cells were seeded into 12-well plates at 3×10^5 cells/well/mL in RPMI-1640 medium with 5% FBS and incubated at 37° C. for 24 h. One μL of a compound described herein at desired concentration (10 mM, 1 mM, 0.1 mM, 0.01 mM, 0.001 mM and 0.0001 mM in DMSO) or DMSO was added into the corresponding well and mixed. Cells were incubated at 37° C. for 4 h. Then 100 μL of RPMI-1640 medium containing 110 μM of NBD-Ceramide, 11% BSA, 5% FBS, and corresponding concentration of a compound described herein was added into each well and mixed. Cells were incubated for additional 0.5 h at 37° C., followed by washing the cells with ice-cold PBS (pH 7.4) twice with centrifugation and resuspended with 50 μL cold PBS+1% Triton X-100. The cell lysate was sonicated for 15 min before adding equal volume of methanol for LCMS analysis. A small aliquot of cell lysate was used to determine protein concentration by BCA assay kit. The HPLC equipment and methods used in Assay 1 were used in this assay as well and IC50's were calculated.

Chain of glucosylceramide synthase (GCS) (A0A8I3MXG6 1-394): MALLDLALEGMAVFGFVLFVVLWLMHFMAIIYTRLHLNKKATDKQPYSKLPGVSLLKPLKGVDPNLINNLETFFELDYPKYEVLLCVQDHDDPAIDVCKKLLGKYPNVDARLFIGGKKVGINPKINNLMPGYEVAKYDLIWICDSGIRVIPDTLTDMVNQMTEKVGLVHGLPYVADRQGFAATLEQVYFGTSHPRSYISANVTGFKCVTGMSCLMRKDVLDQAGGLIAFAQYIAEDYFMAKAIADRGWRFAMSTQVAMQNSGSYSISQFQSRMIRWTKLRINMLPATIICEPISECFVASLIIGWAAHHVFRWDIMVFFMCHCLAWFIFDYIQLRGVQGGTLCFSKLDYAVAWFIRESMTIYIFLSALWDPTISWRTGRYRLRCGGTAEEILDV

Row | IC50 [1] | IC50 (K562 cells) | Structure (SMILES)
1 | < 10 nM | ≤ 10 nM | CN(C(=O)C1=NOCc2cc(-c3ccc(F)cc3)ccc21)[C@H](CN1CCCC1)[C@H](O)c1ccc(OC2CC2)c(F)c1 [Example 17, N-((1R,2R)-1-(4-cyclopropoxy-3-fluorophenyl)-1-hydroxy-3-(pyrrolidin-1-yl)propan-2-yl)-7-(4-fluorophenyl)-N-methyl-1H-benzo[d][1,2]oxazine-4-carboxamide]
2 | 10 to 100 nM | ≤ 10 nM | CN(C(=O)C1=NOCc2cc(-c3ccc(Cl)s3)ccc21)[C@H](CN1CCCC1)[C@H](O)c1ccc(OC2CC2)c(F)c1 [Example 18, 7-(5-chlorothiophen-2-yl)-N-((1R,2R)-1-(4-cyclopropoxy-3-fluorophenyl)-1-hydroxy-3-(pyrrolidin-1-yl)propan-2-yl)-N-methyl-1H-benzo[d][1,2]oxazine-4-carboxamide]
3 | 10 to 100 nM | ≤ 10 nM | CN(C(=O)C1=NOCc2cc(-c3ccc(F)cc3)ccc21)[C@H](CN1CCCC1)[C@H](O)c1ccc(OC2CC2)c(Cl)c1 [Example 19, N-((1R,2R)-1-(3-chloro-4-cyclopropoxyphenyl)-1-hydroxy-3-(pyrrolidin-1-yl)propan-2-yl)-7-(4-fluorophenyl)-N-methyl-1H-benzo[d][1,2]oxazine-4-carboxamide]
4 | < 10 nM | ≤ 10 nM | O=C(N[C@H](CN1CCC1)[C@H](O)c1ccc(OC2CC2)c(Cl)c1)C1=NOCc2c1ccc1ccccc21 [Example 26, N-((1R,2R)-3-(azetidin-1-yl)-1-(3-chloro-4-cyclopropoxyphenyl)-1-hydroxypropan-2-yl)-1H-naphtho[2,1-d][1,2]oxazine-4-carboxamide]

Second part, the compound before the results:

Row | Structure (SMILES) | IC50 [1] | IC50 (K562 cells)
5 | O=C(N[C@H](CN1CCCC1)[C@H](O)c1ccc(OC2CC2)cc1)C1=NOCc2cc(-c3ccc(Cl)s3)ccc21 [Example 14, 7-(5-chlorothiophen-2-yl)-N-((1R,2R)-1-(4-cyclopropoxyphenyl)-1-hydroxy-3-(pyrrolidin-1-yl)propan-2-yl)-1H-benzo[d][1,2]oxazine-4-carboxamide] | < 10 nM | ≤ 10 nM
6 | O=C(N[C@H](CN1CCCC1)[C@H](O)c1ccc(OC2CC2)c(Cl)c1)C1=NOCc2cc3ccccc3cc21 [Example 20, N-((1R,2R)-1-(3-chloro-4-cyclopropoxyphenyl)-1-hydroxy-3-(pyrrolidin-1-yl)propan-2-yl)-1H-naphtho[2,3-d][1,2]oxazine-4-carboxamide] | < 10 nM | ≤ 10 nM
7 | CN(C(=O)C1=NOCc2cc(-c3ccc(F)cc3)ccc21)[C@H](CN1CCC1)[C@H](O)c1ccc(OC2CC2)c(Cl)c1 [Example 21, N-((1R,2R)-3-(azetidin-1-yl)-1-(3-chloro-4-cyclopropoxyphenyl)-1-hydroxypropan-2-yl)-7-(4-fluorophenyl)-N-methyl-1H-benzo[d][1,2]oxazine-4-carboxamide] | 10 to 100 nM | ≤ 10 nM
8 | O=C(N[C@H](CN1CCCC1)[C@H](O)c1ccc(OC2CC2)c(Cl)c1)C1=NOCc2c1ccc1ccccc21 [Example 22, N-((1R,2R)-1-(3-chloro-4-cyclopropoxyphenyl)-1-hydroxy-3-(pyrrolidin-1-yl)propan-2-yl)-1H-naphtho[2,1-d][1,2]oxazine-4-carboxamide] | < 10 nM | ≤ 10 nM
9 | CC1ON=C(C(=O)N[C@H](CN2CCCC2)[C@H](O)c2ccc(OC3CC3)c(Cl)c2)c2ccc(-c3ccc(F)cc3)cc21 (stereo partly drawn) [Example 24, N-((1R,2R)-1-(3-chloro-4-cyclopropoxyphenyl)-1-hydroxy-3-(pyrrolidin-1-yl)propan-2-yl)-7-(4-fluorophenyl)-1-methyl-1H-benzo[d][1,2]oxazine-4-carboxamide] | 10 to 100 nM | 10 to 100 nM
10 | O=C(N[C@H](CN1CCCC1)[C@H](O)c1ccc(OC2CC2)cc1)C1=NOCc2c1ccc1ccccc21 [Example 25, N-((1R,2R)-1-(4-cyclopropoxyphenyl)-1-hydroxy-3-(pyrrolidin-1-yl)propan-2-yl)-1H-naphtho[2,1-d][1,2]oxazine-4-carboxamide] | < 10 nM | ≤ 10 nM
